# Results taken from PubChem BioAssay AID743434 (The Scripps Research Institute Molecular Screening Center, 2014).
# Active and inactive are the calls of the source. How the calls were made is not given here.
# Biological target: Sphingosine 1-phosphate receptor 3 (Homo sapiens) (UniProt Q99500)
# Test: blockers of human S1PR3 signaling – cell-based, fluorescence, dose response, late-stage follow-up (AID 743434)
# Details: S1P3-expressing cells, fluorescence antagonist assay
# Sequence of Sphingosine 1-phosphate receptor 3 (Homo sapiens) (Q99500 whole entry, looked up): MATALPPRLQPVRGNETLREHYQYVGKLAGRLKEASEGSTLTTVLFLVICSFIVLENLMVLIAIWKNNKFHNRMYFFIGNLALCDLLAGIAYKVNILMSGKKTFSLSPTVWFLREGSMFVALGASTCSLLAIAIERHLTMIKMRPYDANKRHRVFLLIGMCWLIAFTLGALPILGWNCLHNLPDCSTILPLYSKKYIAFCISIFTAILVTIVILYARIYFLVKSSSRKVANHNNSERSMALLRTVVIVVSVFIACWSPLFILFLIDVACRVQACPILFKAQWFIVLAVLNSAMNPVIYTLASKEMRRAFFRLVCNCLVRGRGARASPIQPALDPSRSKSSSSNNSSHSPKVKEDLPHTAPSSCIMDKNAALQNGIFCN
row,SMILES,IC50
1,O=C(NC(c1ccccc1)c1nc(-c2ccccc2)no1)c1ccc(Cl)cc1 (stereo not drawn),2.4 µM
2,O=C(NC(c1ccc(Cl)cc1)c1nc(-c2ccccn2)no1)c1cccc(Cl)c1 (stereo not drawn),2.9 µM
3,O=C(NC(c1nc(-c2ccccc2)no1)C1CCCCC1)c1ccc(Cl)c(Cl)c1 (stereo not drawn),3.3 µM
4,O=C(NC(c1ccc(Cl)cc1)c1nc(-c2ccccc2)no1)c1cccc(Cl)c1 (stereo not drawn),0.214 µM
5,O=C(NC(c1ccc(Cl)c(Cl)c1)c1nc(-c2ccccc2)no1)c1cccc(Cl)c1 (stereo not drawn),0.053 µM
6,N#Cc1ccc(C(=O)NC(c2ccc(Cl)c(Cl)c2)c2nc(-c3ccccc3)no2)cc1 (stereo not drawn),0.32 µM
7,Cc1ccc(C(=O)NC(c2ccccc2)c2nc(-c3ccccc3)no2)cc1 (stereo not drawn),inactive
8,COc1ccc(C(=O)NC(c2ccccc2)c2nc(-c3ccccc3)no2)cc1 (stereo not drawn),inactive

# Next, values leading:
row,IC50,SMILES
1,inactive,O=C(c1cccc(Cl)c1)N(CCO)C(c1ccc(Cl)c(Cl)c1)c1nc(-c2ccccc2)no1 (stereo not drawn)
2,2.8 µM,O=C(NC(c1ccccc1)c1nc(-c2ccccc2)no1)c1cccc(Cl)n1 (stereo not drawn)
3,2.8 µM,O=C(NC(c1nc(-c2ccccc2)no1)C1CCOCC1)c1ccc(Cl)c(Cl)c1 (stereo not drawn)
4,1.1 µM,O=C(NC(c1ccc(Cl)cc1)c1nc(-c2cccc(Cl)c2)no1)c1cccc(Cl)c1 (stereo not drawn)
5,0.214 µM,O=C(NC(c1ccc(Br)cc1)c1nc(-c2ccccc2)no1)c1ccc(Cl)c(Cl)c1 (stereo not drawn)
6,0.39 µM,O=C(NC(c1ccc(Cl)cc1)c1nc(-c2ccccc2)no1)c1ccc(Cl)c(Br)c1 (stereo not drawn)
7,0.076 µM,O=C(NC(c1ccc(Cl)c(Cl)c1)c1nc(-c2ccccc2)no1)c1ccc(Cl)cc1 (stereo not drawn)
8,0.066 µM,O=C(NC(c1ccc(Cl)c(Cl)c1)c1nc(-c2ccccc2)no1)c1ccc(Cl)c(Cl)c1 (stereo not drawn)
9,0.033 µM,O=C(NC(c1cccc(Cl)c1)c1nc(-c2ccccc2)no1)c1cc(Cl)cc(Cl)c1 (stereo not drawn)
10,5.7 µM,O=C(NC(Cc1ccccc1)c1nc(-c2ccccc2)no1)c1cccc(Cl)c1 (stereo not drawn)
